According to patent US20260108465A1 (Belhaven BioPharma Inc., priority 2024, published 2026):
Like-named read-outs stand apart in the source and are kept apart here.

Settings: human, in vivo; for mean AUC0-363: im
Protocol: Twelve human subjects participated in the open-label, single sequence crossover study. […] The subjects returned for a safety follow up visit 3 to 5 days after the final treatment. […] Nor did the subject participate in Treatment D.
The dry powder formulation was administered via intranasal instillation once using a nasal device (APTAR). The IM solution and materials were supplied by the study site and prepared according to the local procedures. The study drug was administered at approximately the same time on each treatment day. There was a washout period of 20 days between the nasal doses administered as treatment A and treatment D. The subjects were admitted to the clinical site the day before each treatment administration and remained on site until at least 8 hours post-dose, or when applicable, until 24 hours post-dose of the specific treatment period. The study drug was administered after at least a 10 hour fast. A standardized meal was provided approximately 4 hours after dosing.
Blood samples were collected prior to dosing at 60, 30, and 0 minutes before dosing, and after dosing at 2, 5, 7, 10, 15, 20, 25, 30, 45, 60, 90, 120, 180, 240, and 360 minutes. Vital signs, ECGs, and cardiac telemetry were obtained throughout the treatment period. […] The calibration curve range of the bioanalytical method was from 10 to 10000 pg/mL.
Noncompartmental analysis was performed on individual human subject plasma concentration-time data using nominal doses and actual blood sampling times. […] Baseline correction was accomplished using the average of the measured concentrations at nominal times of −60, −30, and 0 minutes before dosing.
Pharmacokinetic analyses were performed using the standard PK analysis software package PHOENIX® WinNonlin version 8.4.

## CNC[C@H](O)c1ccc(O)c(O)c1 [Epinephrine IM, epinephrine]
  time of the second IM Cmax after dosing: approximately 45 minutes
0.3 mg
  mean AUC0-363: 18790 pg·min/mL
0.5 mg
  mean AUC0-363: 35890 pg·min/mL
